# Literature values, collected in patent US9694008B2, “Fast-dissolving oral film preparation comprising aripiprazole” (CMG Pharmaceutical CO., LTD., priority 2012, dated 2017).
# Settings: at 25° C.
smiles,measurement,value
"O=C1CCc2ccc(OCCCCN3CCN(c4cccc(Cl)c4Cl)CC3)cc2N1 [aripiprazole, 7-{4-[4-(2,3-dichlorophenyl)piperazin-1-yl]butoxy}-3,4-dihydroquinolin-2(1H)-one]",Solubility in water,about 0.00001 w/v %
